These results are taken from ChEMBL document CHEMBL3137356, “MMV Box Cryptosporidium parvum screening set”.

For the test, the system named is Cryptosporidium parvum. The experiment in a line: MMV: Cryptosporidium parvum oocysts (Iowa Strain) were prepared for use by treatment with 10 mM HCl (37 degrees C, 10 min) followed by 2 mM sodium taurocholate in phosphate-buffered saline (PBS) with Ca2+ and Mg2+ (16 degrees C, 10 min) in order to stimulate excystation. The high-throughput screen was carried out by inoculating >90% confluent human ileocecal adenocarcinoma (HCT-8) cells (ATCC) with ~5.5 x 10^3 primed oocysts per well. Experimental compounds or DMSO (vehicle) were added three hours after infection, and cells were incubated for 48 hours. The class given is functional.

Turning to `CC1CCN(Cc2c(O)ccc3cc(-c4nc5ccccc5s4)c(=O)oc23)CC1`, the Inhibition was -9.182%.
For the compound `CNCCCNc1ccnc2cc(Cl)ccc12`, the Inhibition was -4.729%.
Turning to `Cc1cc(C)c2c(c1)OCN(Cc1ccccc1Cl)C2`, the Inhibition was -66.49%.
With `N=c1c2ccccc2nnn1-c1cccc(C(F)(F)F)c1`, the Inhibition was 6.889%.
To `COCCNC(=O)c1ccc(OC2CCN(Cc3ccc(F)c(F)c3)CC2)c(Cl)c1` belongs 10.52%.
On to `Clc1ccc2[nH]c3c(NCCCN4CCOCC4)ncnc3c2c1`, for which the Inhibition was 37.37%.
Then `Cc1ccc(-c2nc3ccccc3o2)cc1NCc1cc(Cc2ccccc2)ccc1O`, with 20.55%; and `CCOc1cc(Cl)c(C(C)NC(=O)c2ccccc2)cc1OCC` (stereo not drawn), with 5.189%; and `O=C(Nc1ccsc1C(=O)NC1CCCCC1)c1ccc(F)cc1`, with -24.81%.
Take `CCOc1ccc(C2N(C)c3ccccc3N2C)cc1`: the Inhibition was -19.63%.
Consider `Cc1ccc2c(C)nc(Nc3nc(C)cc(-c4ccccc4)n3)nc2c1`, for which the Inhibition is on record as -62.95%.
Then `CCOc1ccc(-c2nonc2NC(=O)c2cccc(C)c2)cc1OCC`, with 2.223%; and `Cc1ccc(-c2cc3c(SCC(=O)Nc4cc(C(F)(F)F)ccc4Cl)nccn3n2)cc1`, with -45.33%.
Turning to `O=C(O)C1Cc2c([nH]c3ccccc23)C(c2ccc(Cl)cc2Cl)N1` (stereo not drawn), the Inhibition was -71.65%.
For the compound `Br.CCN(CC)S(=O)(=O)c1ccc(-c2csc(Nc3ccc(C)c(C)c3)n2)cc1`, the Inhibition is -28.35%.
Regarding `Fc1ccc2[nH]c3c(NCCCN4CCOCC4)ncnc3c2c1`, the Inhibition is reported as -0.2614%.
On to `CCN(CC)CCCNc1ccnc2cc3ccccc3cc12`, for which the Inhibition was -47.31%.
As to `Nc1nc(Nc2cccc(F)c2)nc2ccccc12`, the Inhibition was determined as 22.76%.
For `CCOC(=O)C1=C(C)N=c2sc(=Cc3ccccc3O)c(=O)n2C1c1ccc(OC)c2ccccc12` (stereo not drawn), the Inhibition is given as -32.82%.
With `CCOC(=O)c1cn(CC)c2cc(N3CCCCC3)c(F)cc2c1=O`, the Inhibition is 6.363%.
With `Cc1ccc2cc3c(N)c4c(C)ccc(C)c4nc3nc2c1`, the Inhibition is recorded as -22.09%.
For `Cc1ccc(Nc2nc(-c3ccccn3)cs2)cc1`, the Inhibition is listed as -19.75%.
For the compound `CSC1=NC(=Nc2c(C)cccc2C)C2(CCC(C(C)(C)C)CC2)N1c1ccc(Cl)cc1` (stereo not drawn), the Inhibition is recorded as -57.3%.
For the compound `COc1cccc(O)c1CN1CCC2(CCCN(Cc3ccc(F)cc3)C2)C1` (stereo not drawn), the Inhibition turned out to be 46%.
To `CC(=O)NCCc1nc2ccccc2n1Cc1ccc(C(C)C)cc1` belongs 0.2505%; to `CC1(c2ccccc2)Nc2ccccc2-c2nc3ccccc3n21` (stereo not drawn), 30.85%; to `CCc1ccc(CNCC(O)c2ccccc2)cc1.Cl` (stereo not drawn), -7.138%.
Regarding `CN(C)c1ccc(C=Cc2nc(=O)c3ccccc3o2)cc1`, the Inhibition is -61.37%.
As to `FC(F)(F)c1ccc(Nc2nnnc3ccccc23)cc1`, the Inhibition is listed as -4.73%.
Then `COc1ccc(/C=C2/SC(=Nc3ccccc3)NC2=O)cc1`, with 35.48%; and `O=C1c2ccccc2-c2nnc(-c3ccc(Br)cc3)cc21`, with -13.35%; and `CC(=O)Nc1nnc(SCc2c(C)cc(C(C)(C)C)cc2C)s1`, with -2.709%.
Regarding `CCC(O)c1ccc(Br)cc1NC(=O)c1cccc(Cl)c1` (stereo not drawn), the Inhibition was found to be 15.79%.
Turning to `O=c1c2c([nH]c3ccccc13)CCCC2`, the Inhibition was 14.89%.
Turning to `COc1cccc(C2(C)Nc3ccccc3-c3nc4ccccc4n32)c1` (stereo not drawn), the Inhibition is -28.25%.
Regarding `CCN(CC)CCNc1ccnc2cc(Cl)ccc12`, the Inhibition is recorded as -45.62%.
`COc1ccccc1C(=O)ON=C(N)Cc1cccc2ccccc12`: the Inhibition is listed as -19.53%.
To `O=C(NCC1Cc2cccc(-c3ccncc3)c2O1)c1csc2c1CCCC2` (stereo not drawn) belongs 13.55%; to `OC1=C2C(=Nc3ccccc3SC2c2ccc(Br)cc2)c2ccccc21` (stereo not drawn), 2.929%; to `CCCCc1c(C)nc2c(OC)cccc2c1O`, -24.29%.
Turning to `CCOC(=O)c1cnc2c(C)cccc2c1Nc1ccc(C(C)=O)cc1`, the Inhibition is on record as -10.99%.
On to `COc1ccccc1CNC(=O)CCn1c(=O)[nH]c2ccccc2c1=O`, for which the Inhibition is recorded as 3.729%.
As for `COc1cc(SC)ccc1C(=O)N1CCCC(C)C1` (stereo not drawn), the Inhibition is -12.18%.
Then `OC(CNC1CCCC1)Cn1c2ccccc2c2ccccc21` (stereo not drawn), with -40.56%.
As for `CCOc1cc2c(cc1OCC)C(c1cc(C)c(O)c(C)c1)NCC2.Cl` (stereo not drawn), the Inhibition is listed as 13.77%.
Then `CCC1(C)CC(CCNCc2ccccc2O)(c2ccc(C)cc2)CCO1` (stereo not drawn), with -2.346%; and `O=C(Nc1cccc(-c2nc3ccccc3[nH]2)c1)c1cccc(NC(=O)c2ccco2)c1`, with 23.53%.
On to `O=C(O)C(=O)O.Oc1ccccc1CN1CCN(C(c2ccccc2)c2ccccc2)CC1`, for which the Inhibition was -3.109%.
Then `Cc1ccc(OCCCCCCNCCO)c(C)c1`, with -13.88%.
Take `Cl.c1ccc2c(NCCCCCCNc3c4c(nc5ccccc35)CCCC4)c3c(nc2c1)CCCC3`: the Inhibition is 13.18%.
As for `O=C(Nc1ccc(CN2CCOCC2)cc1)c1ccc(-c2ccc(Br)cc2)o1`, the Inhibition was 0.1242%.
For `O=C(Nc1ccc(N2CCN(Cc3ccccc3)CC2)cc1)c1cccs1.O=C(O)C(F)(F)F`, the Inhibition is recorded as -70.26%.
On to `COc1ccc(-c2nc3cc(Cc4ccc5[nH]c(-c6ccc(OC)cc6)nc5c4)ccc3[nH]2)cc1`, for which the Inhibition is on record as 35.52%.
On to `CC(C)(C)c1ccc(O)c(CNC2CCCCC2)c1`, for which the Inhibition was -70.4%.
`O=C(NC1CCCCC1)C(c1cccs1)N(CCc1ccccc1)C(=O)c1ccco1` (stereo not drawn): the Inhibition is listed as -24.45%.
Then `COc1cc(C(=O)Nc2ccc(-c3nc4ccccc4[nH]3)cc2)cc(OC)c1OC`, with 41.18%.
For `COc1ccc(CCN2C(=O)c3[nH]nc(-c4cc(Cl)c(C)cc4O)c3C2c2ccccc2F)cc1` (stereo not drawn), the Inhibition is listed as 10.68%.
`Cc1ccc(-c2cc(C(=O)Nc3ccc(S(=O)(=O)N4CCCCC4)cc3)[nH]n2)c(O)c1`: the Inhibition is reported as -59.17%.
`CC(O)(c1ccc(Cl)cc1)C(CN1CCCCC1)c1ccccc1.Cl` (stereo not drawn): the Inhibition amounted to 15.77%.
As for `Cc1ccnc(NC(c2cccc(OCc3ccccc3)c2)c2ccc3cccnc3c2O)c1` (stereo not drawn), the Inhibition was determined as 80.24%.
On to `O=[N+]([O-])c1ccc(C=NNc2nc3ccccc3[nH]2)cc1`, for which the Inhibition is -55.94%.
Take `CCOC(=O)c1cnc2ccc(OC)cc2c1Nc1ccc(N2CCN(C)CC2)cc1`: the Inhibition is given as -40.43%.
In the case of `CCN(CC)c1ccc(NC(=O)c2cccs2)cc1`, the Inhibition was -55.73%.
To `CCN1CCN(c2c(C(=O)c3ccccc3)cnc3cc(OC)c(OC)cc23)CC1` belongs -1.231%; to `COc1cccc(NC(=O)[C@H](C(C)C)n2c(=O)[nH]c3ccccc3c2=O)c1`, 8.977%.
Regarding `Cc1sc(NC(=O)c2ccccc2)c(C(c2cccs2)N2CCN(c3ccccc3)CC2)c1C` (stereo not drawn), the Inhibition is on record as -51.35%.
Regarding `CCOc1cccc2sc(N(Cc3cccnc3)C(=O)C3CCCCC3)nc12`, the Inhibition is on record as -38.34%.
For `OC1=C2C(=Nc3ccccc3SC2c2ccccc2)c2ccccc21` (stereo not drawn), the Inhibition is given as -46.02%.

Usually Inhibition stands for the change of the read-out against control, counted positive when it falls.
